Patent publication US4560684A, “1,4-Benzodiazepine derivatives” (priority 1982, dated 1985)
Counter-ions that a name gives are not always drawn. Like-named read-outs stand apart in the source and are kept apart here.

Tests used:
[1] = system: tetrabenazine (TBZ) induced ptosis; assay: Antagonism to the tetrabenazine (TBZ) induced ptosis; format: in vivo, DS male mice; details: Mus musculus, sc, read-out: Anti-TBZ ptosis (ED50)
Protocol: (§1) Each compound was used in the form of 0.5 to 1% suspension made by mixing
(§2) with its half volume of arabic gum.
**Antagonism to the tetrabenazine (TBZ) induced ptosis: To several groups
of DS male mice in 4 to 5 weeks age, each group consisting of 5 mice was
subcutaneously administered the test compound. Half an hour later, 50
mg/kg of tetrabenazine was subcutaneously administered. Degree of the
ptosis in 1 hour was scored, and the result was subjected to the rigid
conversion. The ED50 value was obtained from the regression

[2] = system: pentylenetetrazole (PTZ) induced convulsion; assay: Antagonism to the pentylenetetrazole (PTZ) induced convulsion; format: in vivo, ddy male mice; details: Mus musculus, read-out: Anti-PTZ convulsion (ED50)
Protocol: as §1, §2
***Antagonism to the pentylenetetrazole (PTZ) induced convulsion: To
several groups of ddy male mice in 4 to 5 weeks age, each group consistin
of 8 mice was orally administered the test compound. Half an hour later,
125 mg/kg of pentylenetetrazole was subcutaneously administered, and the
number of mice surviving during 2 hours was observed. The ED50 value
was obtained from the survival number according to the probit method.

[3] = DS male mice, subcutaneous, half an hour before tetrabenazine 50 mg/kg s.c., ptosis scored in 1 hour
[4] = ddy male mice, oral, half an hour before pentylenetetrazole 125 mg/kg s.c., survival during 2 hours

| SMILES | ED50 ([1]; 1 h) | ED50 ([2]; po, 2 h) | ED50 [1, 3] | ED50 [2, 4] |
| --- | --- | --- | --- | --- |
| CN1CCC(N2C(=O)CN=C(c3ccccc3)c3ccccc32)CC1 [Compound 6] | 0.26 mg/kg | > 20 mg/kg |  |  |
| CN1CCC(N2C(=O)CN=C(c3ccccc3F)c3ccccc32)CC1 [Compound 8, 1-(1-methyl-4-piperidinyl)-1,3-dihydro-5-(2-fluorophenyl)-2H-1,4-benzdiazepin-2-one] | 0.205 mg/kg | > 10 mg/kg |  |  |
| CN1CCC(N2C(=O)CN=C(c3ccccc3F)c3cc(Cl)ccc32)CC1 [Compound 10] | 1.3 mg/kg | 0.77 mg/kg |  |  |
| Cc1ccc2c(c1)C(c1ccccc1F)=NCC(=O)N2C1CCN(C)CC1 [Compound 15] | 0.839 mg/kg | > 10 mg/kg |  |  |
| O=C1CN=C(c2ccccc2F)c2cc(Cl)ccc2N1C1CCNCC1 [Compound 23, 7-chloro-1,3-dihydro-5-(2-fluorophenyl)-1-(4-piperidinyl)-2H-1,4-benzodiazepin-2-one] |  |  | 0.075 mg/kg | 8.52 mg/kg |
| O=C1CN=C(c2ccccc2)c2ccccc2N1C1CCNCC1 [Compound 26, 1-(4-piperidinyl)-1,3-dihydro-5-phenyl-2H-1,4-benzodiazepin-1-one hydrobromide] |  |  | 0.063 mg/kg | > 10 mg/kg |
| CN(C)CCCN1c2ccccc2CCc2ccccc21 [imipramine, reference compound] | 0.799 mg/kg | > 10 mg/kg |  |  |
